Reference: patent publication US20250066389A1, “HETEROCYCLIC AMIDES AND METHODS OF USING THE SAME” (Rgenta Therapeutics, Inc., priority 2021, published 2025)

What follows are molecules tested on PMS1 (assay: Mini-Gene Reporter Assay—PMS1 (firefly luciferase mini-gene reporter transiently transfected into HEK293 cells)). Details: Homo sapiens; at 5 uM; mini-gene firefly luciferase reporter in HEK293 cells; read-out: PMS1 % Effect at 5 uM.
Type: cell-based
Outline: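 HEK293 cells transiently transfected with a mini-gene construct (skipped exon with flanking introns/exons fused to firefly luciferase, pcDNA3.1) are incubated with compounds in duplicate. Exon inclusion raises luminescence; EC50 fitted by Levenberg-Marquardt; effect also scored at 5 μM.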

| Structure (SMILES) | activation at 5 µM |
| --- | --- |
| CCOc1cc2nn(C)cc2cc1C(=O)Nc1cnc(NCc2cnn3c2CNCC3)nc1 [Compound 409] | < 50% |
| CCOc1cc2nn(C)cc2cc1C(=O)Nc1cnc(N2CCC(N)(CC)CC2)nc1 [Compound 410] | > 75% |
| CCOc1cc2nn(C)cc2cc1C(=O)Nc1cnc(NCC2CNCCC2(F)F)nc1 (stereo not shown) [Compound 411] | < 50% |
| CCOc1cc2nn(C)cc2cc1C(=O)Nc1cnc(N2CC(NC)C(C)(C)C2)nc1 (stereo not shown) [Compound 412] | < 50% |
| CCOc1cc2nn(C)cc2cc1C(=O)Nc1cnc(NCC2CNC(C)C2)nc1 (stereo not shown) [Compound 413] | < 50% |
| CCOc1cc2nn(C)cc2cc1C(=O)Nc1cnc(N2CCC(n3ncc4c3CNC4)CC2)nc1 [Compound 414] | < 50% |
| CCOc1cc2nn(C)cc2cc1C(=O)Nc1cnc(NC2CCCNC2C)nc1 (stereo not shown) [Compound 415] | < 50% |
| CCOc1cc2nn(C)cc2cc1C(=O)Nc1cnc(N2CC(N)CC2C)nc1 (stereo not shown) [Compound 416] | 50 to 75% |
| CCOc1cc2nn(C)cc2cc1C(=O)Nc1cnc(NCCC2CC(F)(F)CN2)nc1 (stereo not shown) [Compound 417] | < 50% |
| CCOc1cc2nn(C)cc2cc1C(=O)Nc1cnc(N2CCC(N)(c3cccc(F)c3)C2)nc1 (stereo not shown) [Compound 418] | < 50% |
| CCOc1cc2nn(C)cc2cc1C(=O)Nc1cnc(NCC(N)c2ccc(F)cc2)nc1 (stereo not shown) [Compound 419] | < 50% |
| CCOc1cc2nn(C)cc2cc1C(=O)Nc1cnc(NCC2(CN)CCC2)nc1 [Compound 421] | < 50% |
| CCOc1cc2nn(C)cc2cc1C(=O)Nc1cnc(N2CC(N)C(C)(C)C2)nc1 (stereo not shown) [Compound 422] | < 50% |
| CCOc1cc2nn(C)cc2cc1C(=O)Nc1cnc(NCC2NCCc3sccc32)nc1 (stereo not shown) [Compound 423] | < 50% |
| CCOc1cc2nn(C)cc2cc1C(=O)Nc1cnc(NC(C)CNC)nc1 (stereo not shown) [Compound 424] | < 50% |
| CCOc1cc2nn(C)cc2cc1C(=O)Nc1cnc(NCC[C@@H]2C[C@H](OC)CN2)nc1 [Compound 425] | < 50% |
| CCOc1cc2nn(C)cc2cc1C(=O)Nc1cnc(NCC2=CCNCC2)nc1 [Compound 426] | < 50% |
| CCOc1cc2nn(C)cc2cc1C(=O)Nc1cnc(N2C[C@@H](F)C[C@H]2CN)nc1 [Compound 427] | < 50% |
| CCOc1cc2nn(C)cc2cc1C(=O)Nc1cnc(NCC2CCCCNC2)nc1 (stereo not shown) [Compound 428] | < 50% |
| CCOc1cc2nn(C)cc2cc1C(=O)Nc1cnc(N2CCC3(CNCCO3)C2)nc1 (stereo not shown) [Compound 429] | < 50% |

| Structure (SMILES) | activation at 5 µM |
| --- | --- |
| CCOc1cc2nn(C)cc2cc1C(=O)Nc1cnc(NCC2CCNCC2(F)F)nc1 (stereo not shown) [Compound 431] | < 50% |
| CCOc1cc2nn(C)cc2cc1C(=O)Nc1cnc(N2C[C@H](O)C[C@@H]2CN)nc1 [Compound 433] | < 50% |
| CCOc1cc2nn(C)cc2cc1C(=O)Nc1cnc(NCC2CCNCC2C)nc1 (stereo not shown) [Compound 434] | < 50% |
| CCOc1cc2nn(C)cc2cc1C(=O)Nc1cnc(N2CCCC(C)(CN)C2)nc1 (stereo not shown) [Compound 435] | < 50% |
| CCOc1cc2nn(C)cc2cc1C(=O)Nc1cnc(N2CC3(CNCCO3)C2)nc1 [Compound 436] | < 50% |
| CCOc1cc2nn(C)cc2cc1C(=O)Nc1cnc(N2CCCC2CNC)nc1 (stereo not shown) [Compound 437] | < 50% |
| CCOc1cc2nn(C)cc2cc1C(=O)Nc1cnc(N(C)C[C@H]2CCCN2)nc1 [Compound 438] | < 50% |
| CCOc1cc2nn(C)cc2cc1C(=O)Nc1cnc(NCC2(C)CCNC2)nc1 (stereo not shown) [Compound 439] | < 50% |
| CCOc1cc2nn(C)cc2cc1C(=O)Nc1cnc(N2C[C@@H](F)C[C@H]2CNC)nc1 [Compound 440] | < 50% |
| CCOc1cc2nn(C)cc2cc1C(=O)Nc1cnc(N2CCCC3(CCNC3)C2)nc1 (stereo not shown) [Compound 441] | < 50% |
| CCOc1cc2nn(C)cc2cc1C(=O)Nc1cnc(N2CCC3(CCCN3)CC2)nc1 [Compound 442] | > 75% |
| CCOc1cc2nn(C)cc2cc1C(=O)Nc1cnc(NC[C@@H]2CC(F)(F)CN2)nc1 [Compound 443] | < 50% |
| CCOc1cc2nn(C)cc2cc1C(=O)Nc1cnc(N2CC(N)C3(CC3)C2)nc1 (stereo not shown) [Compound 444] | < 50% |
| CCOc1cc2nn(C)cc2cc1C(=O)Nc1cnc(NCc2ccc(CN)cc2F)nc1 [Compound 445] | < 50% |
| CCOc1cc2nn(C)cc2cc1C(=O)Nc1cnc(N(C)CC2CCCN2)nc1 (stereo not shown) [Compound 446] | < 50% |
| CCOc1cc2nn(C)cc2cc1C(=O)Nc1cnc(NCCC2(O)CNC2)nc1 [Compound 447] | < 50% |
| CCOc1cc2nn(C)cc2cc1C(=O)Nc1cnc(N(C)CCN2CCNCC2)nc1 [Compound 448] | < 50% |
| CCOc1cc2nn(C)cc2cc1C(=O)Nc1cnc(N(C)CC2CCNC2)nc1 (stereo not shown) [Compound 449] | < 50% |
| CCOc1cc2nn(C)cc2cc1C(=O)Nc1cnc(NC[C@H]2CCCNC2)nc1 [Compound 450] | < 50% |
| CCOc1cc2nn(C)cc2cc1C(=O)Nc1cnc(NCc2ccccc2N2CCNCC2)nc1 [Compound 451] | < 50% |

| Structure (SMILES) | activation at 5 µM |
| --- | --- |
| CCOc1cc2nn(C)cc2cc1C(=O)Nc1cnc(N2CCC3(CC2)CNCCO3)nc1 [Compound 452] | < 50% |
| CCOc1cc2nn(C)cc2cc1C(=O)Nc1cnc(N2CC(C)NCC2C)nc1 (stereo not shown) [Compound 453] | 50 to 75% |
| CCOc1cc2nn(C)cc2cc1C(=O)Nc1cnc(N2CCC3(CCNCC3)C2)nc1 [Compound 454] | < 50% |
| CCOc1cc2nn(C)cc2cc1C(=O)Nc1cnc(N2CCCC(CCN)C2)nc1 (stereo not shown) [Compound 455] | < 50% |
| CCOc1cc2nn(C)cc2cc1C(=O)Nc1cnc(N2CCOC3(CCNCC3)C2)nc1 [Compound 459] | < 50% |
| CCOc1cc2nn(C)cc2cc1C(=O)Nc1cnc(NCCC2CCCCN2)nc1 (stereo not shown) [Compound 460] | < 50% |
| CCOc1cc2nn(C)cc2cc1C(=O)Nc1cnc(NCCC2CCCNC2)nc1 (stereo not shown) [Compound 462] | < 50% |
| CCOc1cc2nn(C)cc2cc1C(=O)Nc1cnc(N2CCC(NC)C2)nc1 (stereo not shown) [Compound 463] | > 75% |
| CCOc1cc2nn(C)cc2cc1C(=O)Nc1cnc(N2C[C@H]3CNC[C@H]3C2)nc1 [Compound 464] | 50 to 75% |
| CCOc1cc2nn(C)cc2cc1C(=O)Nc1cnc(NC[C@@H]2CCNC2)nc1 [Compound 465] | < 50% |
| CCOc1cc2nn(C)cc2cc1C(=O)Nc1cnc(N2CCCC(NC)C2)nc1 (stereo not shown) [Compound 466] | < 50% |
| CCOc1cc2nn(C)cc2cc1C(=O)Nc1cnc(N2C[C@@H]3C[C@H]2CN3)nc1 [Compound 467] | < 50% |
| CCOc1cc2nn(C)cc2cc1C(=O)Nc1cnc(NCC2CNC2)nc1 [Compound 468] | < 50% |
| CCOc1cc2nn(C)cc2cc1C(=O)Nc1cnc(NCC2CCCCN2)nc1 (stereo not shown) [Compound 469] | < 50% |
| CCOc1cc2nn(C)cc2cc1C(=O)Nc1cnc(NC[C@@H]2CCCN2)nc1 [Compound 470] | < 50% |
| CCOc1cc2nn(C)cc2cc1C(=O)Nc1cnc(NCCNC)nc1 [Compound 472] | < 50% |
| CCOc1cc2nn(C)cc2cc1C(=O)Nc1cnc(N2CCC(NC)CC2)nc1 [Compound 473] | < 50% |
| CCOc1cc2nn(C)cc2cc1C(=O)Nc1cnc(NC[C@H]2CCCN2)nc1 [Compound 475] | < 50% |
